Entries after “also recorded” stand apart in the source; their conditions may differ.
B1: biotinylated recombinant Nurr1 LBD (Tb-labeled through Tb-cryptate streptavidin) (domain or fragment, human, UniProt P43354-1 364-598, looked up)
chain: LISALVRAHVDSNPAMTSLDYSRFQANPDYQMSGDDTQHIQQFYDLLTGSMEIIRGWAEKIPGFADLPKADQDLLFESAFLELFVLRLAYRSNPVEGKLIFCNGVVLHRLQCVRGFGEWIDSIVEFSSNLQNMNIDISAFSCIAALAMVTERHGLKEPKRVEELQNKIVNCLKDHVTFNNGGLNRPNYLSKLLGKLPELRTLCTQGLQRIFYLKLEDLVPPPAIIDKLFLDTLPF
modifications: biotin on the lysine residue in the Avi-Tag
notes: In the assays coupled to terbium cryptate streptavidin conjugate (Tb-SA) as FRET donor; also called Tb-labeled Nurr1 LBD; Tb-cryptate-labeled Nurr1 LBD; source: E. coli T7 express with pGro7, purified (IMAC, TEV cleavage, amylose resin, birA biotinylation, monomeric avidin, SEC); not shown: MBP, N-terminal, cleaved; His8, N-terminal, cleaved; Avi-Tag, N-terminal, kept

What was measured:
Nurr1 [1] = target: T1, Nurr1 (Homo sapiens, UniProt P43354); assay: Gal4-Nurr1 hybrid reporter gene assay in HEK293T cells; assay type: cell-based; settings: for EC50: HEK293T, n≥3; for Nurr1 activity 10μM (mean fold activation) / Nurr1 activity 30μM (mean fold activation): primary screen, n ≥ 2, ^# not significant vs VP16 control
T1 construct: Nurr1 (uniprot entry: hNURR1–P43354, residues 360–598); expressed in transfected cells; host or cells: HEK293T
T1 sequence (P43354 360-598): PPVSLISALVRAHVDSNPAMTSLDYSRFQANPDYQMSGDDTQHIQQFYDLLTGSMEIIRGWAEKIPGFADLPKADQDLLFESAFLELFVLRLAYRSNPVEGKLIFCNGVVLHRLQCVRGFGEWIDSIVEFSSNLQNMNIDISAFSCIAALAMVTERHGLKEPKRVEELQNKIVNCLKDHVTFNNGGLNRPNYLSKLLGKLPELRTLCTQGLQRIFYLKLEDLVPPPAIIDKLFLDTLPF

NBRE: Nurr1 monomer = target: T2, NBRE: Nurr1 monomer (Homo sapiens, UniProt P43354); assay: Full-length Nurr1 reporter gene assay on NBRE response element; assay type: cell-based; settings: full-length human Nurr1; HEK293T; mean ± SD
T2 construct: the activity of full-length human Nurr1 in cellular settings; host or cells: HEK293T
T2 sequence (P43354 whole entry): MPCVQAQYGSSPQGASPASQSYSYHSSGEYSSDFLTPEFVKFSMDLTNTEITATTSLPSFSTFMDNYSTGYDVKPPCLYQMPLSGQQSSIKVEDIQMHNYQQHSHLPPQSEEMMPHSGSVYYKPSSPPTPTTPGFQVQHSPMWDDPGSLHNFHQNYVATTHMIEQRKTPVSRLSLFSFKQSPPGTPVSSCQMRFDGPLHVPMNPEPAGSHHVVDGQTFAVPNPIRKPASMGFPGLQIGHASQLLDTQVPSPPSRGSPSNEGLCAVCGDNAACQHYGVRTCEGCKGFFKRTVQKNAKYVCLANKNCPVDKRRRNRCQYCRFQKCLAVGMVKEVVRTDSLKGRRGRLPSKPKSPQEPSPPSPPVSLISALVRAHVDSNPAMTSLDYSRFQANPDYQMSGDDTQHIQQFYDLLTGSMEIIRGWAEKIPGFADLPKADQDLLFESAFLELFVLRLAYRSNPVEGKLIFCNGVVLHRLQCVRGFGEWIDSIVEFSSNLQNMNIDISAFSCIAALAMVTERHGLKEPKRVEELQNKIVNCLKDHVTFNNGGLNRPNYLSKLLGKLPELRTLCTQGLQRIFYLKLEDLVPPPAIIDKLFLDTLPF

NurRE: Nurr1 homodimer = target: T3, NurRE: Nurr1 homodimer (Homo sapiens, UniProt P43354); assay: Full-length Nurr1 reporter gene assay on NurRE response element; assay type: cell-based; settings: full-length human Nurr1; HEK293T; mean ± SD
T3 construct: the activity of full-length human Nurr1 in cellular settings; host or cells: HEK293T
T3 sequence (P43354 whole entry): as above

[2] = target: T4, DR5: Nurr1–RXRα heterodimer (Homo sapiens, UniProt P43354); assay: Full-length Nurr1 reporter gene assay on DR5 response element; assay type: cell-based; settings: full-length human Nurr1 and RXRα overexpressed; HEK293T; mean ± SD
T4 construct: the activity of full-length human Nurr1 in cellular settings; host or cells: HEK293T
T4 sequence (P43354 whole entry, one chain of several): as the sequence (P43354 whole entry) above

Nurr1 LBD homodimer = target: T5, Nurr1 LBD homodimer (Homo sapiens, UniProt P43354); assay: Nurr1 homodimerization HTRF (GFP-Nurr1 LBD vs Tb-labeled Nurr1 LBD); assay type: biochemical; settings: cell-free; ligand 100 µM
T5 construct: Nurr1 (uniprot entry: P43354-1, residues 364–598); MBP-Asn10 linker (N, cleaved yes); His8-Tag (N, cleaved yes); His10-Tag (N, cleaved yes); made in house; host or cells: E. coli T7 express (with pGro7)
Protocol: Strength and modulation of the formation of the heterodimer composed of the LBDs of Nurr1 and RXRα was investigated by titration of GFP-RXRα LBD against a fixed concentration of Nurr1 LBD. Assay solutions were prepared in HTRF assay buffer supplemented with 0.1% (w/v) CHAPS as well as 1% DMSO with test compounds at 100 µM or DMSO alone as negative control. […] Free GFP was added to keep the total GFP content stable at 4 µM throughout the entire series in order to suppress artefacts from changes in degree of diffusion enhanced FRET. Samples were equilibrated at RT for 2 h before FI520 and FI620 were recorded after excitation at 340 nm, and the HTRF signal was calculated as described above.

Nurr1–NCoR-1 interaction = target: T6, Nurr1–NCoR-1 interaction (Homo sapiens, UniProt P43354); assay: Nurr1–NCoR-1 interaction HTRF (GFP-Nurr1 LBD titrated against Tb-labeled NCoR-1); assay type: biochemical; settings: cell-free; ligand fixed at 100 µM
T6 construct: Nurr1 (uniprot entry: P43354-1, residues 364–598); His10-Tag (N, cleaved yes); made in house; host or cells: E. coli T7 express (with pGro7)
Protocol: Since ligand concentration was fixed in this setting, interference with the HTRF system is less prone to generate potential artifacts.
To maintain a constant GFP concentration, free GFP protein was added to the dilution series. The experiments were performed in HTRF assay buffer (150 mM KF, 25 mM HEPES pH 7.5 (KOH), 5% (w/v) Glycerol, supplemented with 0.1% (w/v) CHAPS and 5 mM DTT) with 1% DMSO in an assay volume of 20 µl. After 1 h incubation at RT, fluorescence intensities after excitation at 340 nm were recorded at 520 nm for GFP acceptor fluorescence and 620 nm for Tb-SA donor fluorescence and the HTRF signal was calculated as described above.

Nurr1 [3] = tested on: Nurr1; parameters: method as in PMID 26124091; settings: cited from earlier work
Nur77 = target: T7, Nur77 (Homo sapiens, UniProt P22736); assay: Gal4-Nur77 hybrid reporter gene assay in HEK293T cells; assay type: cell-based; settings: primary screen, n ≥ 2, ^# not significant vs VP16 control
T7 construct: Nur77 (uniprot entry: hNUR77–P22736, residues 358–598); expressed in transfected cells; host or cells: HEK293T
T7 sequence (P22736 358-598): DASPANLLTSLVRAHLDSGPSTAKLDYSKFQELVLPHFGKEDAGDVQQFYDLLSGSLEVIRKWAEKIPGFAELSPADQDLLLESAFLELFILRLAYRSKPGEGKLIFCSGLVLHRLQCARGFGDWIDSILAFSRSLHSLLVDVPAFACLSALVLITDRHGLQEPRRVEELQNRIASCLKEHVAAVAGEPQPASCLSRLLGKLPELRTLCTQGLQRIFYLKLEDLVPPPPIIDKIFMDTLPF

NOR1 = target: T8, NOR1 (Homo sapiens, UniProt Q92570); assay: Gal4-NOR1 hybrid reporter gene assay in HEK293T cells; assay type: cell-based; settings: for Nor1 activity 10μM (mean fold activation) / Nor1 activity 30μM (mean fold activation): primary screen, n ≥ 2, ^# not significant vs VP16 control
T8 construct: NOR1 (isoform alpha; uniprot entry: hNOR1–Q92570-1, residues 393–626); expressed in transfected cells; host or cells: HEK293T
T8 sequence (Q92570 393-626): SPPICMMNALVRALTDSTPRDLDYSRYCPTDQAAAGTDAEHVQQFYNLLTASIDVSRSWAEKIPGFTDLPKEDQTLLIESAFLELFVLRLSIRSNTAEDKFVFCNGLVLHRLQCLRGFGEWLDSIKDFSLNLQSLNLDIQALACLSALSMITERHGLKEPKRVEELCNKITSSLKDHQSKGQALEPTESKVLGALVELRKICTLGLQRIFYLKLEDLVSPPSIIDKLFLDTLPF

firefly luciferase = firefly luciferase (Photinus pyralis, UniProt P08659); assay: Firefly luciferase inhibition; settings: compounds marked with * in Fig. 2a
Sequence of firefly luciferase (P08659 whole entry, the tested form may be a part): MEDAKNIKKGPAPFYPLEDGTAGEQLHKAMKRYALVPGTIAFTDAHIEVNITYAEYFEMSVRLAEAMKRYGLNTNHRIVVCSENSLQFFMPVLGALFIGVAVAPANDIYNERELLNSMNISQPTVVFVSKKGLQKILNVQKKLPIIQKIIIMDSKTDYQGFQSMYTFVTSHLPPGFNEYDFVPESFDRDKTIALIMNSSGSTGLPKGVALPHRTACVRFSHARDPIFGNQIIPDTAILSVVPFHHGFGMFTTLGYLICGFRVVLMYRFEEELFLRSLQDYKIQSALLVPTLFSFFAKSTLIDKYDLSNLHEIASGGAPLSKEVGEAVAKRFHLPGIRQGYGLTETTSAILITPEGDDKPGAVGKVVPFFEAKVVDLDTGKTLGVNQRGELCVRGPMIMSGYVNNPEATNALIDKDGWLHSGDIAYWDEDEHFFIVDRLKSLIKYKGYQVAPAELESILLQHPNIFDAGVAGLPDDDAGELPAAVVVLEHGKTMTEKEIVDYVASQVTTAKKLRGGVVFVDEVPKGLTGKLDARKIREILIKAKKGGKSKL

PPAR; RXRα; RARα = assay: Selectivity profiling in Gal4 hybrid reporter gene assays outside the NR4A family; assay type: cell-based, human; settings: rel. activation vs reference agonists at 1 µM; n ≥ 4
Gal4-VP16 = target: T9, Gal4-VP16 (Human herpesvirus 1, UniProt P06492); assay type: cell-based; settings: n ≥ 4
T9 construct: host or cells: HEK293T

RXRα = target: T10, RXRα (Homo sapiens, UniProt P19793); assay: Gal4-RXRα hybrid reporter gene assay (selectivity); assay type: cell-based; settings: selectivity profiling; also described previously
T10 construct: expressed in transfected cells; host or cells: HEK293T
T10 sequence (P19793 227-458 limits assumed): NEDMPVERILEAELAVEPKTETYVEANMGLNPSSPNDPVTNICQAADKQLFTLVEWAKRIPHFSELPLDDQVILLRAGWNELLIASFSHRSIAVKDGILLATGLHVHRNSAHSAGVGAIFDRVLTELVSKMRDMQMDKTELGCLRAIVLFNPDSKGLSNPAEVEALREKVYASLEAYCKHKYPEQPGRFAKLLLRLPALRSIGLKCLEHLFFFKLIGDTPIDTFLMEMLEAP

[4] = target: B1; assay: AlphaScreen or HTRF; Nurr1 homodimerization: GFP-Nurr1 LBD titrated from 500 nM against biotinylated Nurr1 LBD 0.375 nM on Tb-SA 0.75 nM; free GFP added to keep total GFP at 500 nM; HTRF assay buffer with 0.1% CHAPS; 1% DMSO alone or with AQ, CQ, parecoxib or oxaprozin at 100 µM; 2 h at RT; settings: both partners purified
GFP-RXRα LBD = target: T11, GFP-RXRα LBD (human, UniProt P19793-1 226-462); assay: AlphaScreen or HTRF; Nurr1-RXR heterodimerization: GFP-RXRα LBD titrated from 4 µM (dilution factor 0.7) against biotinylated Nurr1 LBD 0.375 nM on Tb-SA 0.75 nM; free GFP added to keep total GFP at 4 µM; HTRF assay buffer with 0.1% CHAPS; 1% DMSO alone or with AQ, CQ, MFA, parecoxib or oxaprozin at 100 µM; 2 h at RT; settings: both partners purified
T11 construct: Superfolder GFP is the FRET acceptor; a BamHI site lies between GFP and the LBD; also called GFP-labeled RXRα LBD; source: E. coli T7 express with pGro7, purified (IMAC, TEV cleavage, reverse IMAC, SEC); not shown: His10, N-terminal, cleaved; superfolder GFP, N-terminal, kept
T11 sequence (looked up): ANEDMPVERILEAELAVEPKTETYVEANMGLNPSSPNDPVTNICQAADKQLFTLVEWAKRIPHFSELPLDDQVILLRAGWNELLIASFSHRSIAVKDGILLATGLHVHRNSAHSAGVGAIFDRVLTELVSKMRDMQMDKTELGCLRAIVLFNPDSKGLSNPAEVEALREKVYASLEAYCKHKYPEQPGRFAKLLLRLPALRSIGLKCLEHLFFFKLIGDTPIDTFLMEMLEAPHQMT

Molecule | EC50 (Nurr1 [1]; mean ± SD) [µM] | Nurr1 activity 10μM (mean fold activation) (Nurr1 [1]) [fold] | Nurr1 activity 30μM (mean fold activation) (Nurr1 [1]) [fold] | Nur77 activity 10μM (mean fold activation) (Nur77) [fold] | Nur77 activity 30μM (mean fold activation) (Nur77) [fold] | Nor1 activity 10μM (mean fold activation) (NOR1) [fold] | Nor1 activity 30μM (mean fold activation) (NOR1) [fold] | Inhibition of firefly luciferase (firefly luciferase) | other results
CCN(CC)Cc1cc(Nc2ccnc3cc(Cl)ccc23)ccc1O [AQ, amodiaquine] | 36 |  |  |  |  |  |  |  | EC50 (NBRE: Nurr1 monomer): 92 µM; EC50 (NurRE: Nurr1 homodimer): 87 µM; EC50 [2]: 97 µM; Homodimerization (effect of ligand) (Nurr1 LBD homodimer): promoted homodimerization; also recorded: Promotes dimerization; NCoR-1 affinity (effect of ligand) (Nurr1–NCoR-1 interaction): promoted the Nurr1–NCoR-1 interaction; also recorded: Enhances affinity; Nurr1 activation efficacy (Nurr1 [3]): ~ 3 fold
O=C(O)COC(=O)Cc1ccccc1Nc1c(Cl)cccc1Cl [aceclofenac] | 2.5 ± 0.1 | 0.85 | 0.46 | 0.84 | 0.60 | 0.94 | 0.49 | inhibit firefly luciferase | Gal4-Nurr1 maximum/minimum activation (Nurr1 [1]; vs 0.1% DMSO, mean ± SD): 1.99 ± 0.07 fold; Selectivity over PPAR, RXRα, RARα (PPAR; RXRα; RARα): confirmed selectivity
Cc1ccc(Nc2c(F)cccc2Cl)c(CC(=O)O)c1 [lumiracoxib] |  | 0.90 | 0.76 | 0.76 | 0.66 | 0.86 | 0.79 | inhibit firefly luciferase | 
O=C(O)CCc1nc(-c2ccccc2)c(-c2ccccc2)o1 [oxaprozin] |  |  |  |  |  |  |  |  | NOR1 min./max. activation (NOR1; compared to 0.1% DMSO, mean ± SD): ≥ 0.00; Control experiments on Gal4-VP16 (non-specific reporter effects) (Gal4-VP16): no non-specific reporter suppression; RXR agonism (RXRα): weak RXR agonism
GFP-Nurr1 LBD (domain or fragment, human, UniProt P43354-1 364-598, looked up, Superfolder GFP is the FRET acceptor; a BamHI site lies between GFP and the LBD; also called GFP-labeled Nurr1 LBD; source: E. coli T7 express with pGro7, purified (IMAC, TEV cleavage, reverse IMAC, SEC); not shown: His10, N-terminal, cleaved; superfolder GFP, N-terminal, kept) LISALVRAHVDSNPAMTSLDYSRFQANPDYQMSGDDTQHIQQFYDLLTGSMEIIRGWAEKIPGFADLPKADQDLLFESAFLELFVLRLAYRSNPVEGKLIFCNGVVLHRLQCVRGFGEWIDSIVEFSSNLQNMNIDISAFSCIAALAMVTERHGLKEPKRVEELQNKIVNCLKDHVTFNNGGLNRPNYLSKLLGKLPELRTLCTQGLQRIFYLKLEDLVPPPAIIDKLFLDTLPF |  |  |  |  |  |  |  |  | binding result [4]: binds
B1 |  |  |  |  |  |  |  |  | binding result (GFP-RXRα LBD): binds

— paper PMC9814838, “The orphan nuclear receptor Nurr1 is responsive to non-steroidal anti-inflammatory drugs” (Communications Chemistry, 2020)
